Experimental data reported in article PMC7002685, “Inhibition of vascular calcification by inositol phosphates derivatized with ethylene glycol oligomers” (Nature Communications, 2020).

Columns and labels:
[1] = molecular target: T1, Serotonin (5-Hydroxytryptamine) 5-HT2C (Homo sapiens, UniProt P28335); assay: Off-target 271800; type: binding
T1 construct: purchased Eurofins Panlabs Discovery Services Taiwan, Ltd
Experimental: (§1) The potential off-target activity of 10 µM (OEG2)2-IP4 was assessed against a panel of 87 enzymes, receptors, or ion channels that are used in standard safety pharmacology screens.
(§2) 3.2. Off-target screening assay
(§3) The experiments were conducted by a contract research organization (Eurofins Panlabs Discovery Services Taiwan, Ltd.) and details on the respective assays can be retrieved via the catalog number provided in Supplementary Table 11 from the company’s webpage
(§4) (https://www.eurofinsdiscoveryservices.com/). […]
(§5) At sacrifice the left tibia of animals of the rat model with dietary adenine/high-phosphate-induced uremia and VC was collected, fixed with 70% v/v EtOH and embedded in methyl methacrylate. The trabecular bone compartment is known to be the most metabolic active i.e. actively re-structured bone compartment in CKD. Therefore, histomorphometric and micro-computed tomography (µCT) analysis of bone was performed on the trabecular compartment. Tibial sections were Goldner-stained for histomorphometric analysis of the proximal metaphysis using the AxioVision Release 4.5 software, as […]
(§6) described previously5. […]

[2] = VSMC viability (MTS), compounds only; type: cell-based, human; settings: human, compound only, read-out: VSMC viability (MTS), % of medium control
Phosphodiesterase PDE3 = molecular target: T2, Phosphodiesterase PDE3 (Homo sapiens, UniProt Q14432); assay: Off-target 152000; type: biochemical
T2 construct: purchased Eurofins Panlabs Discovery Services Taiwan, Ltd
T2 sequence (Q14432 whole entry): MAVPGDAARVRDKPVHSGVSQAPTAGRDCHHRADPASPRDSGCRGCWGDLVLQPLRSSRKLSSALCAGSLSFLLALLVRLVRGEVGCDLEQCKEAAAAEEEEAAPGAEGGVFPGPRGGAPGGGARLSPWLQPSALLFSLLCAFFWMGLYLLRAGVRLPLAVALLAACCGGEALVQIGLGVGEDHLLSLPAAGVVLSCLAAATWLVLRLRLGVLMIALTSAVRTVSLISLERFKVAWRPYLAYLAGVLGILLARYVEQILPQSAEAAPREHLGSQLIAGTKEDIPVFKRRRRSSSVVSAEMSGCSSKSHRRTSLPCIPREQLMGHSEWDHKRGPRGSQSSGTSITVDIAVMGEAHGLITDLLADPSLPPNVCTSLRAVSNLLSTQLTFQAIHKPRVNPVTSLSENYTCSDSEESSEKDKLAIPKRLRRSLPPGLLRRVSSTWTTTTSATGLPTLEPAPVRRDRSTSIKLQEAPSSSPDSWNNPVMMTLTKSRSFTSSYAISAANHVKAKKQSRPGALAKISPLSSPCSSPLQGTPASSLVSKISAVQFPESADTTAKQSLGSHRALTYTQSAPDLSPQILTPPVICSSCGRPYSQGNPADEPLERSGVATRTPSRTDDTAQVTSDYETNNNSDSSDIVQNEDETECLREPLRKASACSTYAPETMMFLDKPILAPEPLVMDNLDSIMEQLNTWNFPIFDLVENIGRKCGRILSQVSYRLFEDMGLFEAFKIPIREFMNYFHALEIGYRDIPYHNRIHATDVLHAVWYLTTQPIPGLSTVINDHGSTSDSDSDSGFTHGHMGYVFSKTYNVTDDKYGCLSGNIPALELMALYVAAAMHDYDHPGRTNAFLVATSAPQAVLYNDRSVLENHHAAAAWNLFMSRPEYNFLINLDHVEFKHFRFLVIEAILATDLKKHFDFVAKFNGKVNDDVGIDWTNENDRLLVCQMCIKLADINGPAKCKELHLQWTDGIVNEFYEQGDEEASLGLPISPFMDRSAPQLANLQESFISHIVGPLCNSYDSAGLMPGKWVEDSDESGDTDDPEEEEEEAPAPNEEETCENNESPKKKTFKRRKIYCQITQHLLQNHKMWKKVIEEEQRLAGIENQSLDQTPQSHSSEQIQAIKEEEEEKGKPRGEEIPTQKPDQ
Experimental: as §1, §2
(§7) The experiments were conducted by a contract research organization (Eurofins Panlabs Discovery
(§8) Services Taiwan, Ltd.) and details on the respective assays can be retrieved via the catalog number
(§9) provided in Supplementary Table 11 from the company’s webpage
as §4

[3] = molecular target: T3, Cholinesterase, Acetyl, ACES (Homo sapiens, UniProt P22303); assay: Off-target 104010; type: biochemical
T3 construct: purchased Eurofins Panlabs Discovery Services Taiwan, Ltd
T3 sequence (P22303 32-614): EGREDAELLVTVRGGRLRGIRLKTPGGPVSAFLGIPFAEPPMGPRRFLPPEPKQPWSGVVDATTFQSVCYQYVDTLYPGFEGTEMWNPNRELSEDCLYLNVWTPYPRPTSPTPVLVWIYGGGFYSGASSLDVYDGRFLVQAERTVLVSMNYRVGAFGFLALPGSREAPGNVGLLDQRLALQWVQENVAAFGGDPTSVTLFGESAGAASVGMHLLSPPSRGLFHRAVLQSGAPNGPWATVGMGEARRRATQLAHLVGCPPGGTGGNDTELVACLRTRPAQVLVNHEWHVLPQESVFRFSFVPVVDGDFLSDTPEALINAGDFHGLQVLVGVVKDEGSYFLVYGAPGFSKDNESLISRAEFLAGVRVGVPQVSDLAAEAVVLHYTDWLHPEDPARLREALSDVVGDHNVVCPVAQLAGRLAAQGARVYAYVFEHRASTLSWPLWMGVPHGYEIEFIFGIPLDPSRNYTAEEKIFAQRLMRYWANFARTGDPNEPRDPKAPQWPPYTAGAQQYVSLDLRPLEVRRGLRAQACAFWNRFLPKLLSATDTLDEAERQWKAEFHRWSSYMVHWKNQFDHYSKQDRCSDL
Experimental: as §1, §2, §7, §8, §9, §4

[4] = molecular target: T4, Glutamate, Metabotropic, mGlu5 (Homo sapiens, UniProt P41594); assay: Off-target 237000; type: binding
T4 construct: purchased Eurofins Panlabs Discovery Services Taiwan, Ltd
T4 sequence (P41594 21-1212): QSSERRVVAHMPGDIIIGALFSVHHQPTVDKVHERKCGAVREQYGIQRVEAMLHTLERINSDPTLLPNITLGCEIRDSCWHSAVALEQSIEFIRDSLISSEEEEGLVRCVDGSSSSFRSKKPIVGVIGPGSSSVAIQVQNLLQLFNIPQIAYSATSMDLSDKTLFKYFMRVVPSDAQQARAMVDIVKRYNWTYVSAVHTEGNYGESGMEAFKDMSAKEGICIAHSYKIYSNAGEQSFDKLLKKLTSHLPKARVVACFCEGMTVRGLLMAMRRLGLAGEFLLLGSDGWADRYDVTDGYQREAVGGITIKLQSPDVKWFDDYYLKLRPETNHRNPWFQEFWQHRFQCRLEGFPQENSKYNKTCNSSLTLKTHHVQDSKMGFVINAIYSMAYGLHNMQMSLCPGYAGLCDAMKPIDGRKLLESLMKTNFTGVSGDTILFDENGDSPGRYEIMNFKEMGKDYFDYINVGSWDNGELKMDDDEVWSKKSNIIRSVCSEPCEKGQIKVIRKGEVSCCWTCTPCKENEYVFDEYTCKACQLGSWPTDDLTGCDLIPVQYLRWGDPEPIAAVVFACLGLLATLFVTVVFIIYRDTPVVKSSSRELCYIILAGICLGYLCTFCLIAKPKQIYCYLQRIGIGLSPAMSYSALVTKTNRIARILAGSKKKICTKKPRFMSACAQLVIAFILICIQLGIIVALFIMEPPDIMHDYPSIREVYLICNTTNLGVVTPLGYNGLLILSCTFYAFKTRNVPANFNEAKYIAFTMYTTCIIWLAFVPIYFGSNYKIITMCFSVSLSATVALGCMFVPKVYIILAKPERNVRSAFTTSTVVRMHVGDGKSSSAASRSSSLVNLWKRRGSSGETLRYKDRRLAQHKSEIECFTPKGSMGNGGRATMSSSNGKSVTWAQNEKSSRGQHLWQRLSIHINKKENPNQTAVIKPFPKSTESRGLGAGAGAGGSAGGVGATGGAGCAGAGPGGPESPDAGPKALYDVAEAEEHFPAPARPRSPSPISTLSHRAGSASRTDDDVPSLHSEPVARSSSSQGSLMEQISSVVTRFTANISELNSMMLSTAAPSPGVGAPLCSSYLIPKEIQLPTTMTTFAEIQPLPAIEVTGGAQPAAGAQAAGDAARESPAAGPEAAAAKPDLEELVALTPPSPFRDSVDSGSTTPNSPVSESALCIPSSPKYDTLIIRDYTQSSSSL
Experimental: as §1, §2, §3, §4, §5, §6

Potassium Channel [KATP] = assay: Off-target 265600; type: binding, Hamster; settings: 10 µM
Experimental: as §1, §2, §7, §8, §9, §4

[5] = system: panel of 87 enzymes, receptors, or ion channels; assay: Off-target panel of 87 enzymes, receptors, or ion channels; type: biochemical; settings: 10 µM
Experimental: as §1, §2, §3, §4, §5, §6

Histamine H1 = molecular target: T5, Histamine H1 (Homo sapiens, UniProt P35367); assay: Off-target 239610; type: binding
T5 construct: purchased Eurofins Panlabs Discovery Services Taiwan, Ltd
T5 sequence (P35367 whole entry): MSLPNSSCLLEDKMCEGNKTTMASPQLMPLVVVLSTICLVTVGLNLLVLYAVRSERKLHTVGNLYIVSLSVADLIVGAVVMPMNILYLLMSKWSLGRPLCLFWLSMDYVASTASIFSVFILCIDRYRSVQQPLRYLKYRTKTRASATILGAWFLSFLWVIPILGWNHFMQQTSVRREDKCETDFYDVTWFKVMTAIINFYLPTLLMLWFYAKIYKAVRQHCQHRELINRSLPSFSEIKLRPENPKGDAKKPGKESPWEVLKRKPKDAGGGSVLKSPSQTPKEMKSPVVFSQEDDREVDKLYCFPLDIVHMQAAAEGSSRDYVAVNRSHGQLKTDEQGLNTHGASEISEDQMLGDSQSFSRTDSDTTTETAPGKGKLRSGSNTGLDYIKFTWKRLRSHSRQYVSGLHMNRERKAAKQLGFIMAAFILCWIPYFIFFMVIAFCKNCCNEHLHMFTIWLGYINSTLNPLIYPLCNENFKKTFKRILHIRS
Experimental: as §1, §2, §3, §4, §5, §6

[6] = Serum PTH and FGF-23 in adenine model; type: in vivo, rat
Source text: However, clearly the bone mineralization may be affected by the mode of action. The effects of the compound on the bone is not sufficiently investigated, and this limitation not sufficiently discussed, since similar to the adenin model, CKD patients may be the prime patient population for treatment. The bone structure should be documented by µCT. Is there an effect of the compound on the mechanical properties? Am I missing the effects of the compound on bone in healthy animals – this would seem decisive?
In response to the reviewer’s comment we investigated the (3D) bone structure of vehicle and (OEG2)2-IP4 treated CKD animals by µCT analysis and compared the results to that of bone samples from control (non-CKD) male Wistar rats of the same age. […]
because of (1) ethical considerations (aiming to limit the number of animals), (2) the primary end-point of the study was to evaluate the effect of (OEG2)2-IP4 on the development of vascular calcification, which was of no relevance for control (non-CKD) animals as they do not develop vascular calcification. […]
In response to the reviewer’s comment we measured concentrations of PTH and FGF-23 in the serum of CKD animals of vehicle and (OEG2)2-IP4 groups both at baseline and at sacrifice. […]

[7] = Plasma calcium after s.c. administration in healthy rats; type: in vivo, rat; settings: 50 mg/kg s.c., acute or sub-chronic (7 days), at tmax of 30 min
Sodium Channel, Site 2 = assay: Off-target 279510; type: binding, Rat; settings: 10 µM
Experimental: as §1, §2, §7, §8, §9, §4

[8] = system: THP-1-derived macrophages; assay: Macrophage viability, compound without CPP2; type: cell-based, human
Experimental: Cell viability was assessed using the MTS assay (CellTiter 96® Aqueous One Solution Cell Proliferation Assay, G3580; Promega, Madison, WI, USA) according to the manufacturer’s instructions. Assays using combined treatment of CPPs or CaP and test compounds were performed in 24-well plates using 20,000 cells per well and assays using test compounds only were performed in a 96-well plate format with a seeding density of 10,000 (VSMC) or 50,000 (THP-1) cells per well, respectively. For controls, cells were treated with respective complete medium only and results were calculated as % of control. […]
(n = 3 independent experiments).

[9] = molecular target: T6, Platelet Activating Factor (PAF) (Homo sapiens, UniProt P25105); assay: Off-target 265010; type: binding
T6 construct: purchased Eurofins Panlabs Discovery Services Taiwan, Ltd
T6 sequence (P25105 whole entry): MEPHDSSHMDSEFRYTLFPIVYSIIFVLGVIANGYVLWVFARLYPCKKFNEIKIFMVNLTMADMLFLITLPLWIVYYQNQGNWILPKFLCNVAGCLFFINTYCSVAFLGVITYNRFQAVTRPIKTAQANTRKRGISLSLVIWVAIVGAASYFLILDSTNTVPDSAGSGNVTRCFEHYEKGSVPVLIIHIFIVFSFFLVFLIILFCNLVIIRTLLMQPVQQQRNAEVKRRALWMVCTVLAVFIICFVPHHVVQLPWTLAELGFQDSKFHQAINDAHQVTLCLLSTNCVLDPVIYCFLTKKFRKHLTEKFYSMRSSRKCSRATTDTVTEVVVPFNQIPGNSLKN
Experimental: as §1, §2, §7, §8, §9, §4

T1 sequence (P28335 33-458): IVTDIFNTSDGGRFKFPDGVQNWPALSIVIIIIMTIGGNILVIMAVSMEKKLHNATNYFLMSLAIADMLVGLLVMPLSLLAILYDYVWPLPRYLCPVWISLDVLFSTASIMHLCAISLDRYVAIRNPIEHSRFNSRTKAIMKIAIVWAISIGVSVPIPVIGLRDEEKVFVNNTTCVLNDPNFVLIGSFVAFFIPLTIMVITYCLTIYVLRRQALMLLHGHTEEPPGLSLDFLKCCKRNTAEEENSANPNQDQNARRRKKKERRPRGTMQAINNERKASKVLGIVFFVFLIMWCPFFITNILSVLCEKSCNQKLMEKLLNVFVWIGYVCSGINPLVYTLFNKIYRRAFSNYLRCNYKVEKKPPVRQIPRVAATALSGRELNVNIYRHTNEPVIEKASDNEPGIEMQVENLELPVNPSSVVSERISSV

## COCCOCCO[C@@H]1[C@@H](OP(=O)(O)O)[C@H](OCCOCCOC)[C@@H](OP(=O)(O)O)[C@@H](OP(=O)(O)O)[C@H]1OP(=O)(O)O [(OEG2)2-IP4, 4,6-Di-O-(methoxy-diethyleneglycol)-myo-inositol-1,2,3,5-tetrakis(phosphate)]
[1]
  inhibition at 10 µM: -5%
[2]; 1 µM
  viability at 1 µM: 108%
[2]; 10 µM
  viability at 10 µM: 106%
Phosphodiesterase PDE3
  inhibition at 10 µM: -1%
[3]
  inhibition at 10 µM: 5%
[4]
  inhibition at 10 µM: 24%
Potassium Channel [KATP]
  % Inhibition: 14%
[5]
  off-target activity in 87 biochemical assays: did not significantly inhibit or stimulate any
Histamine H1
  inhibition at 10 µM: 4%
[6]; 5, 15, 50 mg/kg
  serum PTH levels: did not differ between treatment groups
[6]; lowest (5 mg/kg) dose
  serum FGF-23 compared to vehicle: significantly higher
[7]
  lowering of serum calcium: No significant lowering of serum calcium
Sodium Channel, Site 2
  % Inhibition: -1%
[8]
  macrophage viability: does not alter viability
[9]
  inhibition at 10 µM: -7%
